Measured values as given in publication PMC3072440 (Chemical research in toxicology, 2010).
Read-outs that look alike come from different tables or passages of the source. Each block holds one molecule with its values, some of them ahead of it.

Experiments:
human P450 1A1 = target: T1, human P450 1A1 (Homo sapiens, UniProt P04798); assay: Inhibition of P450 1A1-dependent EROD activity; assay type: biochemical
T1 sequence (P04798 1-512): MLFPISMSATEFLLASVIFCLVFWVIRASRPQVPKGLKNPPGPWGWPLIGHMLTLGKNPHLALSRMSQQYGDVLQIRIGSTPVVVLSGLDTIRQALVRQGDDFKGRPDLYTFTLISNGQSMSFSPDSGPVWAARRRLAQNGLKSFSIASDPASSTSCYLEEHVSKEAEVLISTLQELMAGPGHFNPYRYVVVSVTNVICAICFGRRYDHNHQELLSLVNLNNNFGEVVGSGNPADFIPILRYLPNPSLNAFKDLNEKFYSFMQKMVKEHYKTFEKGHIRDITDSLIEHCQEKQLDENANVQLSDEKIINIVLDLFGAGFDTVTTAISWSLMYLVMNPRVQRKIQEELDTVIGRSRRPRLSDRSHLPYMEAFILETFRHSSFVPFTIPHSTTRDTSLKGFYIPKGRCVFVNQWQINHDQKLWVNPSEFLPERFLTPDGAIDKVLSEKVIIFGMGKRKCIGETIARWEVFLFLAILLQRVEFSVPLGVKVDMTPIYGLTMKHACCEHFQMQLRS

human P450 1B1 [1] = target: T2, human P450 1B1 (Homo sapiens, UniProt Q16678); assay: Spectral binding titration with purified P450 1B1
T2 sequence (Q16678 1-543): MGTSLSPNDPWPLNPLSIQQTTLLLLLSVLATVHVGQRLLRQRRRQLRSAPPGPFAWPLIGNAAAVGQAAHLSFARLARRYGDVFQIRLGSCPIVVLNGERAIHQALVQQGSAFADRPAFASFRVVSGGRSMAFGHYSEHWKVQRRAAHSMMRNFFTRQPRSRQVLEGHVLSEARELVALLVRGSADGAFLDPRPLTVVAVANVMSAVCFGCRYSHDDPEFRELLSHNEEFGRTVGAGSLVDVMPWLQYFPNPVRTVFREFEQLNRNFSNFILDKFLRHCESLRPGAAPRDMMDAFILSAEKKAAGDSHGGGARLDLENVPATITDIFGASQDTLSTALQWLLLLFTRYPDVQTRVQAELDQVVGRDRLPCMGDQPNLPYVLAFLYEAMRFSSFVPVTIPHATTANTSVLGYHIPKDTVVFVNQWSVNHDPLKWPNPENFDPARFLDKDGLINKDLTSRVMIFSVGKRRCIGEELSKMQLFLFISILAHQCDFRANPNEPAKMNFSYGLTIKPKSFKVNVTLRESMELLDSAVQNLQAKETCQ

human P450 1A2 [2] = target: T3, human P450 1A2 (Homo sapiens, UniProt P05177); assay: Inhibition of P450 1A2-dependent EROD activity
T3 sequence (P05177 1-516): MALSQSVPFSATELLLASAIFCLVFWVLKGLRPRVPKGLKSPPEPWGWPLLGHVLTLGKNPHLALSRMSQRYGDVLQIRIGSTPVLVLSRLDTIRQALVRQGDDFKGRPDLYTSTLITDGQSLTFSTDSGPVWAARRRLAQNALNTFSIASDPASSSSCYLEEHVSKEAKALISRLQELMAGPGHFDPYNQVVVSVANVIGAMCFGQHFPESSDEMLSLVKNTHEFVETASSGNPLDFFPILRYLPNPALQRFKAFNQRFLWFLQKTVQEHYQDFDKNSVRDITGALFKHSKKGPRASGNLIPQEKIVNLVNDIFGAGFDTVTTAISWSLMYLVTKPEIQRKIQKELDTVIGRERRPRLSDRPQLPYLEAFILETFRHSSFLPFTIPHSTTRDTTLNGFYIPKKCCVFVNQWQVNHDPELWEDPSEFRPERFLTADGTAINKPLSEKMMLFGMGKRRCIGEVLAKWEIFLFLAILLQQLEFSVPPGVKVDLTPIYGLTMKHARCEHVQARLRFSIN

human P450 3A4 [3] = target: T4, human P450 3A4 (Homo sapiens, UniProt P08684); assay: Spectral binding titration with purified P450 3A4
human P450 2C9 [4] = target: T5, human P450 2C9 (Homo sapiens, UniProt P11712); assay: Spectral binding titration with purified P450 2C9; conditions: concentrations up to 100 µM; results not shown
human P450 3A4 [5] = target: T4, human P450 3A4; assay: Effect on P450 3A4-catalyzed midazolam 1’-hydroxylation
human P450 3A4 [6] = target: T4, human P450 3A4; assay: Inhibition of P450 3A4-dependent midazolam 4-hydroxylation
human P450 2C9 [7] = target: T5, human P450 2C9; assay: Inhibition of P450 2C9-dependent flurbiprofen 4’-hydroxylation
human P450 1A2 [8] = target: T3, human P450 1A2
human P450 1B1 [9] = target: T2, human P450 1B1; assay: Inhibition of P450 1B1-dependent EROD activity; assay type: biochemical
human P450 2C9 [10] = target: T5, human P450 2C9

T5 sequence (P11712 whole entry): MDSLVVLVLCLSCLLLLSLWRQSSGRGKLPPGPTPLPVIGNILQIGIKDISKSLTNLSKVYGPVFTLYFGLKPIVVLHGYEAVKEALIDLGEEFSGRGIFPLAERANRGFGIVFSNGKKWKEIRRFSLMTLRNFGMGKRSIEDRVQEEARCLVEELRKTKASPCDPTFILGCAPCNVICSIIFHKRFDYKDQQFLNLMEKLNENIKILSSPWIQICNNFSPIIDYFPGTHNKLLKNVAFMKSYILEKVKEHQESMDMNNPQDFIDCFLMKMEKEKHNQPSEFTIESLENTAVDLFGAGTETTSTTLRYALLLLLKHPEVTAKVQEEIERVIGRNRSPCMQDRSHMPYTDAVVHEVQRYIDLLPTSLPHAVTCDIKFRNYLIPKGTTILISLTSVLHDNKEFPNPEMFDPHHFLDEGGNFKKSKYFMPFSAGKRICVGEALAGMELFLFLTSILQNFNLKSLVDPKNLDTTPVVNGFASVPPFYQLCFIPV
T4 sequence (P08684 whole entry): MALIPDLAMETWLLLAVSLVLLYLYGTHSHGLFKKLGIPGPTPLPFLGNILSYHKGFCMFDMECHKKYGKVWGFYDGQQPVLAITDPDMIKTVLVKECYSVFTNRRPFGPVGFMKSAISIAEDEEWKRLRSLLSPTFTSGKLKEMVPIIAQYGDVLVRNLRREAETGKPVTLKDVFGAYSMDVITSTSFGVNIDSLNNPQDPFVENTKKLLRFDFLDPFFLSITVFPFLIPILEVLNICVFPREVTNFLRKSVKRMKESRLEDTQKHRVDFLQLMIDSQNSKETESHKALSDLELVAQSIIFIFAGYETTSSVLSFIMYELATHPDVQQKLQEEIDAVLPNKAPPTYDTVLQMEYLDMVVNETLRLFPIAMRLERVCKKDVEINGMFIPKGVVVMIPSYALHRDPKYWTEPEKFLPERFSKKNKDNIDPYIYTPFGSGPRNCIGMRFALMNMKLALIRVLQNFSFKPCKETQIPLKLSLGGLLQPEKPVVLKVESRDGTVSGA

IC50 (human P450 1A1): 980 ± 210 nM
binding spectra with P450 1B1, in words (human P450 1B1 [1]): Reverse Type I binding spectra
IC50 (human P450 1A2 [2]): 130 ± 30 nM
spectral change / Type I binding spectra with P450 3A4, in words (human P450 3A4 [3]; decreases in α and β bands monitored, up to 100 µM): Type I spectral change
ΔAmax, P450 3A4, from difference spectra (Soret band) (human P450 3A4 [3]; purified P450 3A4): 0.12 ± 0.02
spectral changes with P450 2C9, in words (human P450 2C9 [4]): did not induce spectral changes
IC50 (human P450 2C9 [7]): 14000 ± 1200 nM
Structure (SMILES): O=c1cc(-c2ccccc2)oc2ccccc12 [flavone]
effect on formation of 1’-hydroxymidazolam by P450 3A4, in words (human P450 3A4 [5]): enhanced the formation of 1’-hydroxymidazolam
inhibition of P450 3A4 midazolam 4-hydroxylation, in words (human P450 3A4 [6]): inhibited the formation of 4-hydroxymidazolam

inhibition of P450 1A2 EROD, in words (human P450 1A2 [8]): only weakly
Structure (SMILES): C#CCOc1ccc(-c2cc(=O)c3c(ccc4ccccc43)o2)cc1 [BNF4’PE, β–naphthoflavone 4’-propargyl ether]

binding spectra with P450 1B1, in words (human P450 1B1 [1]): no binding spectra
binding spectra with P450 1B1, in words (human P450 1B1 [1]; listed as 2M78DHF): did not show spectra
Structure (SMILES): COc1ccccc1-c1cc(=O)c2ccc(O)c(O)c2o1 [2’M78DHF, 2’-methoxy-7,8-dihydroxyflavone]

IC50 (human P450 3A4 [6]): > 100000 nM
Structure (SMILES): O=c1cc(-c2ccccc2)oc2cccc(O)c12 [5HF, 5-hydroxyflavone]

IC50 (human P450 1A1): 1400 nM
IC50 (human P450 3A4 [6]): 2000 nM
inhibition of P450 2C9 flurbiprofen 4’-hydroxylation, in words (human P450 2C9 [7]): strong inhibitors
Structure (SMILES): COc1ccccc1-c1cc(=O)c2c(O)cc(O)cc2o1 [2’M57DHF, 2’-methoxy-5,7-dihydroxyflavone]

IC50 (human P450 1B1 [9]): 17 nM
inhibition of P450 1A1 EROD, in words (human P450 1A1): strongly inhibited
inhibition of P450 1A2 EROD, in words (human P450 1A2 [2]): only weakly
spectral changes with P450 2C9, in words (human P450 2C9 [4]): did not induce spectral changes
inhibition of P450 3A4 midazolam 4-hydroxylation, in words (human P450 3A4 [6]): not active inhibitors
Structure (SMILES): O=c1cc(-c2ccccc2)oc2ccc3ccccc3c12 [BNF, β–naphthoflavone]

inhibition of P450 2C9 flurbiprofen 4’-hydroxylation, in words (human P450 2C9 [10]): strong inhibitors
IC50 (human P450 2C9 [7]): 800 ± 140 nM
Structure (SMILES): O=c1cc(-c2ccccc2)oc2cc(O)cc(O)c12 [57DHF, 5,7-dihydroxyflavone]

Structure (SMILES): O=c1cc(-c2ccccc2)oc2cc(O)ccc12 [7HF, 7-hydroxyflavone]
spectral changes with P450 2C9, in words (human P450 2C9 [4]): did not induce spectral changes
IC50 (human P450 3A4 [6]): > 100000 nM
inhibition of P450 2C9 flurbiprofen 4’-hydroxylation, in words (human P450 2C9 [7]): strong inhibitors

spectral changes with P450 2C9, in words (human P450 2C9 [4]): did not induce spectral changes
Structure (SMILES): O=c1c(O)c(-c2ccc(O)cc2)oc2cc(O)cc(O)c12 [34’57TetraHF, 3,4’,5,7-tetrahydroxyflavone]

inhibition of P450 3A4 midazolam 4-hydroxylation, in words (human P450 3A4 [6]): not very effective inhibitors
Structure (SMILES): COc1ccc(-c2cc(=O)c3ccccc3o2)cc1OC [3’4’DMF, 3’,4’-dimethoxyflavone]

IC50 (human P450 1A2 [8]): 100 nM
Structure (SMILES): C#CCOc1ccc(-c2cc(=O)c3ccc4ccccc4c3o2)cc1 [ANF4’PE, α-naphthoflavone 4’-propargyl ether]

IC50 (human P450 1B1 [9]): > 100000 nM
IC50 (human P450 1A1): 41000 ± 10000 nM
IC50 (human P450 1A2 [2]): > 100000 nM
inhibition of P450 1A2 at 100 µM, in words (human P450 1A2 [2]; 100 µM concentration): did not inhibit
IC50 (human P450 3A4 [6]): > 100000 nM
inhibition of P450 3A4 at 100 µM, in words (human P450 3A4 [6]; 100 µM concentration): not inhibitory
IC50 (human P450 2C9 [7]): 25000 ± 4200 nM
Structure (SMILES): COc1ccc(-c2cc(=O)c3ccc(O)c(O)c3o2)cc1OC [3’4’DM78DHF, 3’,4’-dimethoxy-7,8-dihydroxyflavone]
